Experimental data published in ChEMBL document CHEMBL4837183, “Antiproliferative Bufadienolides from the Bulbs of Drimia altissima” (2021).

Assays:
Assay type in all cases: functional
SF-268 = assay: Growth inhibition of human SF-268 cells measured after 48 hrs by SRB assay
SF-295 = assay: Growth inhibition of human SF-295 cells measured after 48 hrs by SRB assay
SF-539 = assay: Growth inhibition of human SF-539 cells measured after 48 hrs by SRB assay
SNB-19 = assay: Growth inhibition of human SNB-19 cells measured after 48 hrs by SRB assay
SNB-75 = assay: Growth inhibition of human SNB-75 cells measured after 48 hrs by SRB assay
U-251 = assay: Growth inhibition of human U-251 cells measured after 48 hrs by SRB assay
A549 = assay: Growth inhibition of human A549 cells measured after 48 hrs by SRB assay
HOP-62 = assay: Growth inhibition of human HOP-62 cells measured after 48 hrs by SRB assay
HOP-92 = assay: Growth inhibition of human HOP-92 cells measured after 48 hrs by SRB assay
NCI-H226 = assay: Growth inhibition of human NCI-H226 cells measured after 48 hrs by SRB assay
NCI-H23 = assay: Growth inhibition of human NCI-H23 cells measured after 48 hrs by SRB assay
NCI-H322M = assay: Growth inhibition of human NCI-H322M cells measured after 48 hrs by SRB assay
NCI-H460 = assay: Growth inhibition of human NCI-H460 cells measured after 48 hrs by SRB assay
NCI-H522 = assay: Growth inhibition of human NCI-H522 cells measured after 48 hrs by SRB assay
PC-3 = assay: Growth inhibition of human PC-3 cells measured after 48 hrs by SRB assay
DU-145 = assay: Growth inhibition of human DU-145 cells measured after 48 hrs by SRB assay
IGROV-1 = assay: Growth inhibition of human IGROV-1 cells measured after 48 hrs by SRB assay
OVCAR-3 = assay: Growth inhibition of human OVCAR-3 cells measured after 48 hrs by SRB assay
OVCAR-5 = assay: Growth inhibition of human OVCAR-5 cells measured after 48 hrs by SRB assay
OVCAR-8 = assay: Growth inhibition of human OVCAR-8 cells measured after 48 hrs by SRB assay
NCI/ADR-RES = assay: Growth inhibition of human NCI/ADR-RES cells measured after 48 hrs by SRB assay
SK-OV-3 = assay: Growth inhibition of human SK-OV-3 cells measured after 48 hrs by SRB assay
786-0 = assay: Growth inhibition of human 786-0 cells measured after 48 hrs by SRB assay
A498 = assay: Growth inhibition of human A498 cells measured after 48 hrs by SRB assay
ACHN = assay: Growth inhibition of human ACHN cells measured after 48 hrs by SRB assay
CAKI-1 = assay: Growth inhibition of human CAKI-1 cells measured after 48 hrs by SRB assay
RXF 393 = assay: Growth inhibition of human RXF 393 cells measured after 48 hrs by SRB assay
SN12C = assay: Growth inhibition of human SN12C cells measured after 48 hrs by SRB assay
TK-10 = assay: Growth inhibition of human TK-10 cells measured after 48 hrs by SRB assay
UO-31 = assay: Growth inhibition of human UO-31 cells measured after 48 hrs by SRB assay
CCRF-CEM = assay: Growth inhibition of human CCRF-CEM cells measured after 48 hrs by SRB assay
HL-60 = assay: Growth inhibition of human HL-60 cells measured after 48 hrs by SRB assay
K562 = assay: Growth inhibition of human K562 cells measured after 48 hrs by SRB assay
MOLT-4 = assay: Growth inhibition of human MOLT-4 cells measured after 48 hrs by SRB assay
SR = assay: Growth inhibition of human SR cells measured after 48 hrs by SRB assay
COLO 205 = assay: Growth inhibition of human COLO 205 cells measured after 48 hrs by SRB assay
HCC 2998 = assay: Growth inhibition of human HCC 2998 cells measured after 48 hrs by SRB assay
HCT-116 = assay: Growth inhibition of human HCT-116 cells measured after 48 hrs by SRB assay
HCT-15 = assay: Growth inhibition of human HCT-15 cells measured after 48 hrs by SRB assay
HT-29 = assay: Growth inhibition of human HT-29 cells measured after 48 hrs by SRB assay
KM12 = assay: Growth inhibition of human KM12 cells measured after 48 hrs by SRB assay
SW-620 = assay: Growth inhibition of human SW-620 cells measured after 48 hrs by SRB assay
LOX IMVI = assay: Growth inhibition of human LOX IMVI cells measured after 48 hrs by SRB assay
Malme-3M = assay: Growth inhibition of human Malme-3M cells measured after 48 hrs by SRB assay
M14 = assay: Growth inhibition of human M14 cells measured after 48 hrs by SRB assay
MDA-MB-435 = assay: Growth inhibition of human MDA-MB-435 cells measured after 48 hrs by SRB assay
SK-MEL-2 = assay: Growth inhibition of human SK-MEL-2 cells measured after 48 hrs by SRB assay
SK-MEL-28 = assay: Growth inhibition of human SK-MEL-28 cells measured after 48 hrs by SRB assay
SK-MEL-5 = assay: Growth inhibition of human SK-MEL-5 cells measured after 48 hrs by SRB assay
UACC-257 = assay: Growth inhibition of human UACC-257 cells measured after 48 hrs by SRB assay
UACC-62 = assay: Growth inhibition of human UACC-62 cells measured after 48 hrs by SRB assay
MCF7 = assay: Growth inhibition of human MCF7 cells measured after 48 hrs by SRB assay
MDA-MB-231 = assay: Growth inhibition of human MDA-MB-231 cells measured after 48 hrs by SRB assay
Hs-578T = assay: Growth inhibition of human Hs-578T cells measured after 48 hrs by SRB assay
BT-549 = assay: Growth inhibition of human BT-549 cells measured after 48 hrs by SRB assay
T47D = assay: Growth inhibition of human T47D cells measured after 48 hrs by SRB assay
MDA-MB-468 = assay: Growth inhibition of human MDA-MB-468 cells measured after 48 hrs by SRB assay

SMILES: C[C@]12CC[C@H](O)C=C1CC[C@@H]1[C@@H]2[C@@H](O)C[C@]2(C)[C@@H](c3ccc(=O)oc3)CC[C@]12O
- GI50 (SF-268): 538 nM
- GI50 (SF-295): 660 nM
- GI50 (SF-539): 577 nM
- GI50 (SNB-19): 3860 nM
- GI50 (SNB-75): 1170 nM
- GI50 (U-251): 1280 nM
- GI50 (A549): 353 nM
- GI50 (HOP-62): 454 nM
- GI50 (HOP-92): 2080 nM
- GI50 (NCI-H226): 1760 nM
- GI50 (NCI-H23): 664 nM
- GI50 (NCI-H322M): 1230 nM
- GI50 (NCI-H460): 365 nM
- GI50 (NCI-H522): 377 nM
- GI50 (PC-3): 1330 nM
- GI50 (DU-145): 478 nM
- GI50 (IGROV-1): 1820 nM
- GI50 (OVCAR-3): 531 nM
- GI50 (OVCAR-5): 2360 nM
- GI50 (OVCAR-8): 780 nM
- GI50 (NCI/ADR-RES): 657 nM
- GI50 (SK-OV-3): 2670 nM
- GI50 (786-0): 541 nM
- GI50 (A498): 362 nM
- GI50 (ACHN): 351 nM
- GI50 (CAKI-1): 436 nM
- GI50 (RXF 393): 298 nM
- GI50 (SN12C): 468 nM
- GI50 (TK-10): 750 nM
- GI50 (UO-31): 653 nM
- GI50 (CCRF-CEM): 588 nM
- GI50 (HL-60): 563 nM
- GI50 (K562): 1390 nM
- GI50 (MOLT-4): 369 nM
- GI50 (SR): 1100 nM
- GI50 (COLO 205): 3400 nM
- GI50 (HCC 2998): 4320 nM
- GI50 (HCT-116): 399 nM
- GI50 (HCT-15): 808 nM
- GI50 (HT-29): 689 nM
- GI50 (KM12): 3200 nM
- GI50 (SW-620): 559 nM
- GI50 (LOX IMVI): 1030 nM
- GI50 (Malme-3M): 1260 nM
- GI50 (M14): 2570 nM
- GI50 (MDA-MB-435): 1800 nM
- GI50 (SK-MEL-2): 2330 nM
- GI50 (SK-MEL-28): 2970 nM
- GI50 (SK-MEL-5): 703 nM
- GI50 (UACC-257): 2630 nM
- GI50 (UACC-62): 1760 nM
- GI50 (MCF7): 473 nM
- GI50 (MDA-MB-231): 5420 nM
- GI50 (Hs-578T): 337 nM
- GI50 (BT-549): 371 nM
- GI50 (T47D): 1540 nM
- GI50 (MDA-MB-468): 3750 nM

SMILES: CCO[C@@H]1C=C2CC[C@@H]3[C@H]([C@@H](O)C[C@]4(C)[C@@H](c5ccc(=O)oc5)CC[C@]34O)[C@@]2(C)CC1
- GI50 (SF-268): 58 nM
- GI50 (SF-295): 61 nM
- GI50 (SF-539): 66 nM
- GI50 (SNB-19): 347 nM
- GI50 (SNB-75): 187 nM
- GI50 (U-251): 151 nM
- GI50 (A549): 40 nM
- GI50 (HOP-62): 56 nM
- GI50 (HOP-92): 153 nM
- GI50 (NCI-H226): 181 nM
- GI50 (NCI-H23): 86 nM
- GI50 (NCI-H322M): 121 nM
- GI50 (NCI-H460): 39 nM
- GI50 (NCI-H522): 35 nM
- GI50 (PC-3): 145 nM
- GI50 (DU-145): 52 nM
- GI50 (IGROV-1): 138 nM
- GI50 (OVCAR-3): 59 nM
- GI50 (OVCAR-5): 280 nM
- GI50 (OVCAR-8): 165 nM
- GI50 (NCI/ADR-RES): 91 nM
- GI50 (SK-OV-3): 338 nM
- GI50 (786-0): 71 nM
- GI50 (A498): 39 nM
- GI50 (ACHN): 37 nM
- GI50 (CAKI-1): 57 nM
- GI50 (RXF 393): 25 nM
- GI50 (SN12C): 46 nM
- GI50 (TK-10): 94 nM
- GI50 (UO-31): 54 nM
- GI50 (CCRF-CEM): 54 nM
- GI50 (HL-60): 120 nM
- GI50 (K562): 129 nM
- GI50 (MOLT-4): 42 nM
- GI50 (SR): 124 nM
- GI50 (COLO 205): 401 nM
- GI50 (HCC 2998): 537 nM
- GI50 (HCT-116): 39 nM
- GI50 (HCT-15): 86 nM
- GI50 (HT-29): 78 nM
- GI50 (KM12): 349 nM
- GI50 (SW-620): 63 nM
- GI50 (LOX IMVI): 137 nM
- GI50 (Malme-3M): 145 nM
- GI50 (M14): 232 nM
- GI50 (MDA-MB-435): 178 nM
- GI50 (SK-MEL-2): 234 nM
- GI50 (SK-MEL-28): 296 nM
- GI50 (SK-MEL-5): 72 nM
- GI50 (UACC-257): 268 nM
- GI50 (UACC-62): 145 nM
- GI50 (MCF7): 55 nM
- GI50 (MDA-MB-231): 588 nM
- GI50 (Hs-578T): 44 nM
- GI50 (BT-549): 56 nM
- GI50 (T47D): 255 nM
- GI50 (MDA-MB-468): 501 nM
